Assay results reported in the supplement of paper PMC10307832.

Key:
Assay in all cases: relative viability (nuclei count vs DMSO), 5 days (fraction); higher = more cells survive
[1] = compound: C1=CC2=NC=CN=C2C=C1/C=C/3\C(=O)NC(=O)S3
Method in brief: (§1)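 Nuclei counted with MetaXpress define viability as the ratio of treated to vehicle wells, given as a median across plates. The lung cancer cell lines were in 1536-well plates, pinned with five √10-spaced library-drug doses and imaged at 4× after 5 days and Hoechst staining. Plates passed with control CV below 25% and at least one doubling.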

BGJ398 = compound: CCN1CCN(c2ccc(Nc3cc(N(C)C(=O)Nc4c(Cl)c(OC)cc(OC)c4Cl)ncn3)cc2)CC1 [BGJ398]
Method in brief: as §1

BGJ398 + Pemetrexed = compound: CCN1CCN(c2ccc(Nc3cc(N(C)C(=O)Nc4c(Cl)c(OC)cc(OC)c4Cl)ncn3)cc2)CC1 [BGJ398] + Nc1nc2[nH]cc(CCc3ccc(C(=O)N[C@@H](CCC(=O)O)C(=O)O)cc3)c2c(=O)[nH]1 [Pemetrexed] (partner 0.2 µM)
Method in brief: (§2)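 After 5 days of treatment, lung cancer cells in 1536-well plates were fixed and stained in a single step (final 0.05% Triton X-100, 1% formaldehyde, 1 ug/ml Hoechst) and their nuclei counted on 4× images. Treatment had been applied by pin tool the day after seeding as one drug alone or as a fixed anchor-drug dose with five library-drug doses (not always all listed) in √10 steps. Relative viability is the nuclei count of treated wells divided by that of vehicle wells, and values are medians of duplicate plates.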

[2] = compound: C1=CC2=NC=CN=C2C=C1/C=C/3\C(=O)NC(=O)S3 + Cc1nc(NC(=O)N2CCC[C@H]2C(N)=O)sc1-c1ccnc(C(C)(C)C(F)(F)F)c1 [Alpelisib] (partner 2 µM)
Method in brief: as §2

Row | Cell Line | relative viability ([1]; 0.02 µM) | relative viability ([1]; 0.06325 µM) | relative viability ([1]; 0.2 µM) | relative viability ([1]; 0.6325 µM) | relative viability ([1]; 2 µM) | relative viability (BGJ398; 0.01 µM) | relative viability (BGJ398; 0.03162 µM) | relative viability (BGJ398; 0.1 µM) | relative viability (BGJ398; 0.3162 µM) | relative viability (BGJ398; 1 µM) | relative viability (BGJ398 + Pemetrexed; first compound 0.01 µM) | relative viability (BGJ398 + Pemetrexed; first compound 0.03162 µM) | relative viability (BGJ398 + Pemetrexed; first compound 0.1 µM) | relative viability (BGJ398 + Pemetrexed; first compound 0.3162 µM) | relative viability (BGJ398 + Pemetrexed; first compound 1 µM) | relative viability ([2]; first compound 0.02 µM) | relative viability ([2]; first compound 0.06325 µM) | relative viability ([2]; first compound 0.2 µM) | relative viability ([2]; first compound 0.6325 µM) | relative viability ([2]; first compound 2 µM)
1 | 201T | 0.823 | 1.05 | 1.03 | 0.954 | 0.818 | 1.18 | 0.93 | 0.96 | 0.95 | 0.845 | 0.343 | 0.339 | 0.338 | 0.329 | 0.334 | 0.955 | 1.05 | 1.01 | 0.978 | 0.877
2 | A549 | 0.98 | 0.999 | 1.05 | 0.902 | 0.697 | 0.932 | 0.917 | 1.03 | 0.876 | 0.996 |  |  |  |  |  | 0.847 | 1.1 | 0.67 | 0.729 | 0.557
3 | A-427 | 0.963 | 1.14 | 1.08 | 0.918 | 0.975 | 0.985 | 0.979 | 0.967 | 0.815 | 0.753 | 1.03 | 1.08 | 0.958 | 0.924 | 0.918 | 1.06 | 1.08 | 1.1 | 1.07 | 1.12
4 | ABC-1 | 0.977 | 0.987 | 0.893 | 0.931 | 0.526 | 0.891 | 0.988 | 0.902 | 0.816 | 0.927 |  |  |  |  |  | 1 | 1.14 | 0.933 | 1.01 | 1.02
5 | BEN | 0.922 | 0.922 | 1.03 | 0.961 | 0.839 | 0.891 | 0.964 | 0.947 | 0.845 | 0.809 | 0.703 | 0.812 | 0.751 | 0.749 | 0.606 | 1.07 | 0.877 | 1.22 | 0.911 | 1.09
6 | CAL-12T | 0.962 | 0.953 | 1.08 | 0.971 | 0.951 | 0.947 | 1.02 | 0.935 | 0.929 | 0.942 | 1.17 | 1.21 | 1.1 | 1.34 | 1.01 | 1.3 | 1.11 | 1.11 | 1.3 | 1.15
7 | Calu-6 | 0.971 | 1.04 | 1.03 | 0.989 | 1 | 0.986 | 0.988 | 1.05 | 1.02 | 1.02 |  |  |  |  |  | 1.02 | 1.11 | 1.04 | 0.902 | 0.845
8 | ChaGo-K-1 | 0.972 | 0.991 | 1.09 | 0.919 | 0.891 | 1.06 | 0.987 | 1.03 | 1.03 | 1.02 | 0.261 | 0.249 | 0.242 | 0.269 | 0.281 |  |  |  |  | 
9 | EBC-1 | 0.913 | 1.04 | 0.957 | 1.05 | 1.01 | 0.975 | 0.981 | 1.09 | 1.03 | 1.14 |  |  |  |  |  | 0.819 | 1.05 | 0.788 | 0.849 | 0.854
10 | IA-LM | 0.943 | 1.09 | 0.926 | 0.997 | 0.99 | 0.918 | 1.05 | 0.974 | 0.875 | 0.901 |  |  |  |  |  | 0.586 | 0.713 | 0.64 | 0.749 | 0.764
11 | NCI-H522 | 0.934 | 1.13 | 1 | 0.75 | 0.751 | 0.918 | 0.89 | 1.04 | 0.82 | 0.874 | 0.987 | 0.896 | 0.876 | 0.995 | 0.856 |  |  |  |  | 
12 | NCI-H727 | 0.931 | 0.856 | 1.13 | 0.888 | 0.558 | 0.868 | 0.879 | 0.917 | 0.957 | 0.917 |  |  |  |  |  | 0.647 | 0.571 | 0.556 | 0.653 | 0.346
13 | NCI-H1299 | 0.996 | 1.04 | 1.02 | 1 | 1.01 | 0.99 | 1.05 | 1 | 0.993 | 1.02 |  |  |  |  |  | 1.07 | 1.1 | 1.05 | 1.02 | 0.993
14 | NCI-H1648 | 0.925 | 0.605 | 1.11 | 0.701 | 1 | 0.882 | 0.809 | 0.73 | 0.775 | 0.889 | 0.85 |  | 0.821 | 0.896 | 0.651 |  |  |  |  | 
15 | NCI-H1650 | 0.953 | 0.952 | 0.974 | 1 | 0.975 | 0.874 | 0.747 | 0.909 | 0.487 | 0.692 | 0.391 | 0.361 | 0.354 | 0.295 | 0.319 |  |  |  |  | 
16 | NCI-H1703 | 1.09 | 1.33 | 0.942 | 0.864 | 0.736 | 0.872 | 1.04 | 1.02 | 0.806 | 0.967 |  |  |  |  |  | 0.362 | 0.306 | 0.296 | 0.386 | 0.267
17 | NCI-H2342 | 0.832 | 1.01 | 0.989 | 0.904 | 0.803 | 0.998 | 0.96 | 0.934 | 1.02 | 1.11 | 0.742 | 0.775 | 0.801 | 0.773 | 0.755 |  |  |  |  | 
18 | SW 900 | 0.888 | 0.978 | 1.04 | 0.705 | 0.965 | 1 | 0.899 | 0.779 | 0.428 | 0.453 | 0.471 | 0.43 | 0.469 | 0.348 | 0.256 |  |  |  |  | 
